Consider four substances from article doi:10.1101/2024.07.26.605352v1, “In-vitro Metabolite Identification for MEDI7219, an Oral GLP-1 Peptide, using LC-MS/MS with CID and EAD Fragmentation” (bioRxiv, 2024).

The subject of series [1] is Pancreatin from porcine pancreas. Nature of the series: In vitro incubation of MEDI7219 with pancreatin in PBS, LC-MS/MS metabolite identification and relative quantification. Type of series: in vitro ADME. The following applies: for Time at which fractional abundance peaked: pancreatin 3 mg/ml in PBS, 37 °C, sampling 0.5-6 h. Here is the method:
MEDI7219 solution (10 µg/ml) was incubated with pancreatin (3 mg/ml) in pre-warmed PBS buffer at 37 °C for 0.5 h, 1 h, 2 h, 4 h and 6 h. A negative control sample was prepared as pancreatin in PBS buffer without MEDI7219 spiked in. A time zero sample was prepared as MEDI7219 in PBS without pancreatin. At each time point, 100 µl was sampled and quenched with 200 µl of acetonitrile. The quenched solution was centrifuged at 6000 g for 10 min. Supernatant was diluted 5-fold in mobile phase A (0.1 % formic acid in water) and 40 µl was injected to LC-MS/MS. Same LC-MS system was used here as structural characterization experiment. A longer LC gradient was applied where 20 % B was increased to 60 % B within 8 min.
For MS method, DDA (data dependent acquisition) experiment was used where ions in range of 800-1250 Da were selected for MS/MS. Same key settings for CID and EAD established in the structural characterization experiment described above were applied in MS method here.
Data were analyzed using Molecule Profiler beta version 1.3.2 (MP, SCIEX) beta version. Raw data from incubation at each time point was analyzed against the pancreatin blank sample in the MP software. […] Amino acid sequence for MEDI7219 was entered as a processing parameter. Non-natural amino acids including α-methyl-L-alanine, α-methyl-L-phenylalanine, α-methyl-L-serine, α-methyl-L-lysine, as well as side-chain lipid on lysine (C35H63N5O11) were added as custom elements by providing molecular formula in the software. Peptide method was used to match all peptide fragment peaks with full lipid side chain. Both MS1 and MS2 were used for peak finding based on mass tolerance of 15 ppm. For MS parameters, charge states 2-5 were included in the search. For MS/MS parameters, theoretical b, y, c’, z· as well as y|a and y|b internal fragment ions were searched with mass tolerance of 15 ppm. Default Biologics biotransformation set was used in the processing method. For quantification, all isotope peaks as part of a cluster and multiple charge states of the same peptide were summed for peak area. Results from individual timepoints were consolidated in Correlation analysis with 0.1 min retention time (RT) tolerance and 15 ppm m/z tolerance to yield the final list of metabolites and peak areas from all samples.
Pancreatin was chosen for the in vitro evaluation because the site of maximal gastrointestinal absorption for MEDI7219 oral peptide was small intestine and proximal colon ([Pechenov et al., 2021]). […]
For relative quantification, after correlation analysis in MP software and exporting XIC peak areas, we calculated fractional abundance of each metabolite over the incubation period (Figure 4). […]

The subject of series [2] is pancreatin. The following applies: result in words; ref Pechenov et al., 2021; cited from earlier work. The source says: Systematic multi-disciplinary approach to engineering led to rational selection of the clinical lead, MEDI7219, a GLP-1 peptide with bis-lipidation and 12 amino acid substitutions and 5 α- methyl modifications ([Pechenov et al., 2021]). […] This measurement was done using HPLC with MEDI7219 detection by UV absorption at 210 nm. In this study, we identified key metabolites from MEDI7219 ... || For relative quantification, after correlation analysis in MP software and exporting XIC peak areas, we calculated fractional abundance of each metabolite over the incubation period (Figure 4). This was taken as a percent of XIC peak area of each metabolite over total peak area of all metabolites at a given timepoint (Table S2). Parent peptide decreased quickly in this experiment compared to the 60 % remained intact after 2 h in previous publication ([Pechenov et al., 2021]). The enzyme to substrate ratio was higher in this study compared to Pechenov et al. as the assay condition was optimized ...

The conditions of series [3]: result in words; ref Pechenov et al., 2021; cited from earlier work. The source says: Semaglutide was the first approved oral GLP-1 receptor agonist ([Mahapatra et al., 2022]) and it incorporated peptide engineering approaches such as unnatural amino acid substitution to protect proteolytic sites, and lipidation to promote plasma protein binding to reduce renal clearance.

Turning to “HαAEGSαFTSDVαSSsidechainK [Metabolite M13, metabolite of MEDI7219 identified after incubation with pancreatin]”, the “Time at which fractional abundance peaked” value in series [1] is reported as 0.5 h. For “HαAEGSαFTSDVαSSsidechainKLEGEAAαKEαFIAsidechainK VVEGG [MEDI7219, orally-bioavailable GLP-1 peptide with bis-lipidation, 12 amino acid substitutions and 5 α-methyl modifications; clinical candidate]”, in series [2], the “Proteolytic stability compared with wild type or semaglutide” value is “proteolytically more stable than the wild type or semaglutide”. Also, the “Parent peptide in metabolite chromatograms over pancreatin incubation” value in series [1] (summed XIC chromatograms, 0-6 h, CID data, result in words) is “still present at 0.5 h although no longer the prominent species, and it decreased significantly after 2 h”. For the same substance, the “Number of distinct cleavage sites” value in series [1] (the 13 metabolites mapped on the MEDI7219 structure) was determined as 8. On to “HαAEGSαFTSDVαSSsidechainKLEGEAAαKEαFIAsidechainK [Metabolite M2, metabolite of MEDI7219 identified after incubation with pancreatin]”, for which, in series [1], the “Time at which fractional abundance peaked” value was determined as 0.5 h. As for semaglutide, the “Degradation in GI tract” value in series [3] is “rapidly degraded in GI tract”.
